From patent US20260108600A1, “METHODS AND COMPOSITIONS RELATING TO IMPROVED IONIC LIQUID ADJUVANTS” (PRESIDENT AND FELLOWS OF HARVARD COLLEGE, priority 2022, published 2026)
Entries after “also recorded” stand apart in the source; their conditions may differ. Where two headings read alike, the source gives them in different places.

Columns and labels:
[1] = anion; cited from earlier work
[2] = lower doses, comparing across IL concentration
[3] = tested on: primary dendritic cells; details: IL at varying concentrations, with or without OVA
Procedure: (§1) The impact of differential payloads impacting the ChoSorb response was investigated in vitro. The experiment was done with IL alone and IL+OVA at each concentration to understand how payload (OVA) impacts the cell death pathway since payload may impact the early cell death pathway. Cells were treated with IL at varying concentrations and with or without OVA, then stained with Annexin V and PI at 24 hours (FIGS. 28A-28B).

[4] = tested on: mytotubes (C2C12 cells); details: IL at varying concentrations, with or without OVA
Procedure: as §1

[5] = 10% ChoSorb injections
Procedure: Blood was drawn 4 and 24 hours after the initial dose, and the levels of IL6 and MCP-1 measured (FIGS. 11A-11D). The levels of Tetramer cells were measured at Day 21 and Day 35 (FIGS. 12A-12D). […] The antibody response was measured (FIGS. 13A-13B).

[6] = tested on: LPO expression; assay: LPO expression with or without deferoxamine (ferroptosis indication); format: cell-based
[7] = tested on: Balb/c mice
Procedure: Balb/c mice received one immunization with 10% IL (w/v) and ovalbumin as a model antigen. The antibody and humoral response was then measured.
(§2) Cytokine responses were measured 4 hours after injection.
Antibody responses were measured 14 days after injection.

[8] = tested on: Balb/c and C57BL/6 mice; details: after priming and booster shot
Procedure: In vivo vaccination of OVA with IL adjuvants in Balb/c and C57BL/6 mice. Antigen-specific antibodies and CD8+ T cell responses were evaluated after priming and booster shot.

[9] = target: T1, OVA (Gallus gallus, UniProt P01012); assay: Stability of OVA combined with IL adjuvants (dialysis/SEC, circular dichroism, SDS page); format: physicochemical
T1 sequence (P01012 1-386): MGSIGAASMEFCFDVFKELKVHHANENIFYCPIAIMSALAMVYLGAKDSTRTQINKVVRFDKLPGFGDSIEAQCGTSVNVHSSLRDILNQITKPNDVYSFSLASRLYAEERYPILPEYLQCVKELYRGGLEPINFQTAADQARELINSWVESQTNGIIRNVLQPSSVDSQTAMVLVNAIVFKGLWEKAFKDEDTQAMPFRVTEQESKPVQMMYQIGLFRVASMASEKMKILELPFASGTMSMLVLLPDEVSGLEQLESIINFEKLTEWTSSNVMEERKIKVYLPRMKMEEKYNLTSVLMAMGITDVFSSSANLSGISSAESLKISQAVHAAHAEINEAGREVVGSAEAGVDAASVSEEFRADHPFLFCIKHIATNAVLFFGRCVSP
Source text: Anions were varied based on hydrophobicity (FIG. 8). […] ILs were screened for: • a. Stability of OVA. […] In vitro immune cell maturation and activation.
Role of the payload. […] Simple dialysis was replaced by SEC to remove OVA from ChoShorb formulations.

[10] = tested on: C57BL/6 mice
Procedure: C57BL/6 mice received two immunizations with 10% IL (w/v) and ovalbumin as a model antigen, at day 0 and day 14.
as §2
Antibody responses were measured 14 and 28 days after injection.
T cell responses were measured 7, 14, 21, or 28 days after injection.

[11] = 4 hours after injection, 10% IL (w/v) with ovalbumin

CC=CCCC=CCC(=O)O [Nona-3,7-dienoate]
LogP [1]: 2.6

C=CC=CCCC(=O)O [4,6-Heptadienoic acid]
LogP [1]: 1.5

CCC/C=C\CC/C=C\CCCCCC(=O)O [(7Z,11Z)-pentadeca-7,11-dienoate]
LogP [1]: 5.4

CCC/C=C/C=C\C(=O)O [(2Z,4E)-Octa-2,4-dienoic acid]
LogP [1]: 2.3

C=CCCC/C=C/C(=O)O [2E,7-Octadienoic acid]
LogP [1]: 2.2

CCCCCCCCC=CCCCCCC=CCCC(=O)O [11,4-Eicosadienoic Acid]
LogP [1]: 7.9

CC=C(C)C=C(C)C(=O)O [2,4-Dimethyl-2,4-hexadienoic acid]
LogP [1]: 2.3

C/C=C/C/C=C/C(=O)O [(2E,5E)-2,5-Heptadienoic acid]
LogP [1]: 1.6

C=CC=CCCCC(=O)O [5,7-Octadienoic acid]
LogP [1]: 1.8

C/C=C/CC/C=C/C(=O)O [(2E,6E)-2,6-Octadienoic acid]
LogP [1]: 1.8

CC(C)=C(C)/C=C/C(=O)O [(2E)-4,5-dimethyl-2,4-hexadienoic acid]
LogP [1]: 2.5

C=CCC/C=C/C(=O)O [(2E)-hepta-2,6-dienoic acid]
LogP [1]: 1.6

C/C=C/C=C/C(=O)O [Sorbic Acid]
LogP [1]: 1.43

C/C=C/C=C/C(=O)[O-].C[N+](C)(C)CCO [ChoSorb, choline:sorbic acid]
tetramer cell levels, separate vs combo delivery [2]: outperformed combo doses
chemokine and cytokine levels in the serum (24 hour mark): significantly higher than saline
chemokine and cytokine levels in the serum (48 hour mark): no significant difference from saline
CD4+ T cells (among infiltrating cell types): significant increase
CD45+ cell infiltration into the muscle (compared to saline): more significant rate
inflammatory monocytes (draining lymph node): increase
mature resident cDC1 dendritic cells (draining lymph node): increase
Neutrophils (draining lymph node (dLN) after IL injection): spiked
Monocytes (injection site): increased significantly
inflammatory monocytes (injection site): increased significantly
IL-6 (serum): upregulated
MCP-1 (serum): upregulated
apoptosis (Annexin V and PI) [3]: apoptosis occurs after 24 hours
apoptosis (Annexin V and PI) [4]: apoptosis occurs after 24 hours
muscle tightness after injection [5]: cause muscle tightness over time
LPO expression ([6]; early time points): induces LPO expression
LPO expression ([6]; treated with deferoxamine (DFO), an iron chelator): not when treated with deferoxamine (DFO)
IL-6 concentrations [7, 11]: significantly higher
Total IgG antibody titers ([7]; Day 14): significantly increased
antigen-specific immune response (T-cell and antibody) [8]: create an antigen-specific immune response in both T-cell and antibody responses
antigen (OVA) stability in IL formulation [9]: preserve antigen stability; also recorded: stable
binding of OVA by IL ([9]; simple dialysis replaced by SEC to remove OVA): bound strongly
IL-6 concentrations [10, 11]: significantly higher
Total IgG antibody titers ([10]; Day 14): significantly increased
CD4+ memory T cells ([10]; Day 21): significant increase
Th1/Th2 antibody response (IgG2c, IgG1) ([10]; Day 28): balanced immune response
Total IgG antibody titers ([10]; Day 28): significantly increased
level of antigen-specific T cells (OVA-tetramer staining of CD8+ T cells) ([10]; especially after a booster vaccination): significantly increased

C=CCC/C=C/CC(=O)O [(3E)-3,7-octadienoic acid]
LogP [1]: 1.8

C/C=C\CC/C=C\CCCCCCCC(=O)O [(9Z,13Z)-pentadeca-9,13-dienoate]
LogP [1]: 5.5

CCC=CC=CCC(=O)O [Octa-3,5-dienoic acid]
LogP [1]: 1.8

CC/C=C\C=C\C(=O)O [2,4-Heptadienoic acid, (2E,4Z)-]
LogP [1]: 1.8
